The record followed here is patent US6645983B1, “Pharmaceutical compositions comprising 4-quinolones for treating cancers” (Laboratoire L. Lafon, priority 1999, dated 2003).

In series [1] the test system is SW1088. Put plainly: MTT test, cytotoxic activity on non-clonogenic cell lines. It counts as cell-based. The following applies: Homo sapiens, 10^−5 M, 72 hours of incubation, control condition = 100%, mean value, read-out: mean optical density as percentage of control, SW1088. Summed up:
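Human astrocytoma SW1088 cells seeded, grown 24 h at 37° C, 5% CO2, then exposed to compounds at 10^−5 to 10^−10 M versus solvent control. Viability by MTT reduction: 3 h MTT incubation, formazan dissolved in DMSO and read by spectrophotometry.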

The test system of series [2] is A549. The series is described as above. It counts as cell-based. The settings on record: Homo sapiens, 10^−5 M, 72 hours of incubation, control condition = 100%, mean value, read-out: mean optical density as percentage of control, A549. In a few lines: (§1)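 Human cancer lines seeded at 20 000–50 000 cells/ml, allowed 24 h to attach, then exposed to compounds at 10^−5 to 10^−10 M versus solvent control.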

The test system of series [3] is A-427. Described as above. It counts as cell-based. The settings on record: Homo sapiens, 10^−5 M, 72 hours of incubation, control condition = 100%, mean value, read-out: mean optical density as percentage of control, A-427. Summed up:
as §1

In series [4] the test system is T-47D. Described as above. The settings on record: Homo sapiens, T47D; 10^−5 M, 72 hours of incubation, control condition = 100%, mean value; read-out: mean optical density as percentage of control, T-47D. The class given is cell-based. Summed up:
as §1

In series [5] the test system is U-87MG. The description is as above. The class given is cell-based. The settings on record: Homo sapiens, U-87 MG; 10^−5 M, 72 hours of incubation, control condition = 100%, mean value; read-out: mean optical density as percentage of control, U-87MG. In a few lines:
as §1

Series [6] concerns PC-3. The series is described as above. The class given is cell-based. The settings on record: Homo sapiens, 10^−5 M, 72 hours of incubation, control condition = 100%, mean value, read-out: mean optical density as percentage of control, PC-3. In a few lines:
as §1

The test system of series [7] is MCF7. Described as above. It counts as cell-based. The following applies: Homo sapiens, 10^−5 M, 72 hours of incubation, control condition = 100%, mean value, read-out: mean optical density as percentage of control, MCF7. In a few lines: as §1
Series [8] has as its system LoVo. The series is described as above. It counts as cell-based. The following applies: Homo sapiens, 10^−5 M, 72 hours of incubation, control condition = 100%, mean value, read-out: mean optical density as percentage of control, LoVo. Summed up:
as §1

Series [9] concerns U-373MG. The series is described as above. The class given is cell-based. The settings on record: Homo sapiens, U373 MG; 10^−5 M, 72 hours of incubation, control condition = 100%, mean value; read-out: mean optical density as percentage of control, U-373MG. Summed up:
as §1

Series [10] has as its system HCT-15. The series is described as above. The following applies: Homo sapiens, 10^−5 M, 72 hours of incubation, control condition = 100%, mean value, read-out: mean optical density as percentage of control, HCT-16. The class given is cell-based. Summed up:
as §1

Series [11] can be described thus: Determination of the maximum tolerated dose (MTD). The settings on record: B6D2F1/Jico, mouse, in vivo, ip; single intraperitoneal administration, doses 2.5 to 160 mg/kg, survival over 14 days. In a few lines: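 Mice were 4- to 6-week-old B6D2F1/Jico. They received a single intraperitoneal dose of 2.5 to 160 mg/kg, and survival and body weight were followed for 14 days. MTD is given in mg/kg and is capped at 160 mg/kg by default.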

For series [12], the system named is T24. The experiment in a line: MTT test, cytotoxic activity on non-clonogenic cell lines. It counts as cell-based. The settings on record: Homo sapiens, T-24; 10^−5 M, 72 hours of incubation, control condition = 100%, mean value; read-out: mean optical density as percentage of control, T24. In a few lines:
(§2)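 Human bladder cancer lines were seeded at 20 000–50 000 cells/ml and, after 24 h, exposed to compounds at 10^−5 to 10^−10 M against a solvent control. Formazan was dissolved in DMSO and viability was read by spectrophotometric optical density.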
In general terms: Tetrazolium assays rely on reduction of a dye to a coloured formazan, in cell work by metabolically active cells.

The test system of series [13] is J82. Described as above. The class given is cell-based. The settings on record: Homo sapiens, 10^−5 M, 72 hours of incubation, control condition = 100%, mean value, read-out: mean optical density as percentage of control, J82. Summed up: as §2

A word on the MTD: it is the highest dose tested that stayed within the study's limit of toxicity. Regarding `COc1ccc(-c2cn(CCN(C)C)c3c(OC)ccc(OC)c3c2=O)cc1` [CRL8382, N-[3-(Dimethylamino)ethyl]-5,8-dimethoxy-3-(4-methoxyphenyl)-1,4-dihydro-4-quinolinone], the viability at 10 µM in series [1] is 118%; in series [2], 90.4%; in series [3], 89.2%; in series [4], 94.7%; in [5] it was 59.2%; in series [6], 100%. In addition, the viability at 10 µM in series [7] is 93%; in series [8] it was 96.7%; in series [9], 101%; in [10] it was 93.1%; in series [12], 99.7%; in [13], 95.6%. The MTD at 14 day in [11] is above 160 mg/kg.

In the case of `COc1ccc(OC)c2c1c(=O)c(-c1ccccc1)cn2C` [CRL8383, 5,8-Dimethoxy-1-methyl-3-phenyl-1,4-dihydro-4-quinolinone], the viability at 10 µM in [1] is 75.9%; in [2], 84.1%; in series [3] it was 92.1%; in series [4], 75.3%; in [5], 69.5%; in series [6], 88.3%. For the same molecule, the viability at 10 µM in series [7] came to 85%; in series [8], 89.1%; in series [9] it was 83.5%; in [10], 100%; in series [12], 180%; in [13] it was 94.6%. Also, the MTD at 14 day in series [11] was above 160 mg/kg.

On to `COc1ccc(-c2c[nH]c3c(OC)ccc(O)c3c2=O)cc1` [CRL8391, 5-Hydroxy-8-methoxy-3-(4-methoxyphenyl)-1,4-dihydro-4-quinolinone], for which the viability at 10 µM in series [1] turned out to be 92.5%; in series [2], 88.3%; in series [3], 80.5%; in series [4], 99.3%; in series [5], 74%; in series [6], 80%. Also, the viability at 10 µM in [7] came out at 97.3%; in [8], 87.2%; in series [9], 93.5%; in [10] it was 80.6%; in series [12], 101%; in [13] it was 99.6%. This molecule returned an MTD at 14 day in series [11] above 160 mg/kg.

As to `COc1ccc(-c2cn(C)c3c(OC)ccc(O)c3c2=O)cc1` [CRL8392, 5-Hydroxy-8-methoxy-3-(4-methoxyphenyl)-1-methyl-1,4-dihydro-4-quinolinone], the viability at 10 µM in series [1] worked out at 89.8%; in [2] it was 77.6%; in [3] it was 49.7%; in series [4], 68.6%; in series [5], 82.7%; in series [6], 51.6%. Further, the viability at 10 µM in [7] is 74%; in [8], 79.7%; in [9], 90.2%; in series [10], 77.4%; in series [12] it was 63%; in series [13], 70.6%. In series [11], this molecule had an MTD at 14 day above 160 mg/kg.

Take `CCc1cc(OC)cc2c1c(=O)c(-c1ccc(OC)cc1)cn2C` [CRL8393, 5-Ethyl-7-methoxy-3-(4-methoxyphenyl)-1-methyl-1,4-dihydro-4-quinolinone]: the viability at 10 µM in series [1] is 82.8%; in [2] it was 93%; in [3], 23.7%; in [4], 68.8%; in series [5], 89.9%; in series [6], 87.3%. Besides, the viability at 10 µM is 89.7% in [7]; 84.6% in series [8]; 74.7% in series [9]; 41.8% in series [10]; 95.3% in [12]; 97.9% in [13]. This molecule also showed an MTD at 14 day in series [11] above 160 mg/kg.

Consider `COc1ccc(-c2cn(C)c3cc(OC)cc(-c4ccccc4)c3c2=O)cc1` [CRL8394, 7-Methoxy-3-(4-methoxyphenyl)-1-methyl-5-phenyl-1,4-dihydro-4-quinolinone], for which the viability at 10 µM in [1] came out at 68.5%; in [2], 52.9%; in series [3], 38.9%; in series [4], 94.3%; in series [5], 42.2%; in series [6], 83.2%. The viability at 10 µM is 78% in series [7]; 45.1% in series [8]; 73.5% in [9]; 37.7% in series [10]; 92.9% in series [12]; 93.5% in series [13]. This molecule also yielded an MTD at 14 day in series [11] above 160 mg/kg.

Turning to `CCOC(=O)CCn1cc(-c2ccc(OC)cc2)c(=O)c2c(OC)cc(OC)cc21` [CRL8404], the viability at 10 µM in series [1] was 72.1%; in series [2] it was 93.5%; in [3] it was 93.3%; in series [4] it was 66.7%; in series [5], 91.5%; in series [6], 99.7%. The viability at 10 µM in series [7] was determined as 93.4%; in series [8], 90.7%; in [9], 104%; in series [10] it was 93.7%; in [12], 59.8%; in [13] it was 83.8%. For the same molecule, the MTD at 14 day in series [11] was above 160 mg/kg.

With `COc1ccc(-c2cn(C)c3c(OC)ccc(-c4ccccc4)c3c2=O)cc1` [CRL8405, 8-Methoxy-3-(4-methoxyphenyl)-1-methyl-5-phenyl-1,4-dihydro-4-quinolinone], the viability at 10 µM in series [1] was determined as 40.8%; in series [2], 32%; in series [3], 19.4%; in series [4], 77.1%; in [5], 25.8%; in series [6], 85.5%. The viability at 10 µM stood at 68.2% in [7]; 32.3% in [8]; 28.8% in series [9]; 15.9% in series [10]; 57.8% in [12]; 93.9% in series [13]. Also, the MTD at 14 day in [11] is above 160 mg/kg.

As for `COc1ccc(-c2cn(CCC#N)c3cc(OC)cc(OC)c3c2=O)cc1` [CRL8412, 3-[5,7-Dimethoxy-3-(4-methoxyphenyl)-4-oxo-1,4-dihydro-1-quinolinyl]propanenitrile], the viability at 10 µM in series [1] came to 105%; in series [2] it was 84.5%; in series [3], 83.7%; in [4], 109%; in [5] it was 83.4%; in series [6], 104%. In addition, the viability at 10 µM came to 99.1% in [7]; 77% in [8]; 80.8% in series [9]; 83.6% in series [10]; 100% in [12]; 94.2% in [13]. Further, in [11], the MTD at 14 day is above 160 mg/kg.

For `COc1ccc(-c2cn(CC#N)c3c(OC)ccc(OC)c3c2=O)cc1` [CRL8413, [5,8-Dimethoxy-3-(4-methoxyphenyl)-4-oxo-1,4-dihydro-1-quinolinyl]acetonitrile], the viability at 10 µM in [1] worked out at 83.7%; in [2] it was 48.7%; in [3], 73.3%; in series [4] it was 112%; in [5] it was 56%; in series [6] it was 63.4%. The viability at 10 µM in series [7] was found to be 67.2%; in series [8], 85.6%; in series [9], 66.4%; in series [10] it was 65.9%; in series [12], 71.8%; in series [13], 88.4%. In addition, in [11], the maximal tolerated dose (MTD) at 14 day was above 160 mg/kg.
